# According to patent US5571816A, “Pyrimidines” (Hoechst Aktiengesellschaft, priority 1992, dated 1996):
# Counter-ions that a name gives are not always drawn. Like-named read-outs stand apart in the source and are kept apart here.
# Key:
# serum lipoproteins = experiment: Effect on serum lipoproteins of normolipemic male rats in a subchronic experiment; type: in vivo; details: Rattus norvegicus, po, by stomach tube, 7 administrations; for change in vivo at 3 mg/kg: 3 mg/kg/day; for change in vivo at 10 mg/kg: 10 mg/kg/day; for change in vivo at 30 mg/kg: 30 mg/kg/day
# Outline: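 Male HOE: WISKf rats (>180 g, 10/group) dosed orally by stomach tube once daily for 7 days in 1% aqueous Tylose; fasted 24 h and bled 24 h after last dose. Pooled serum ultracentrifuged into VLDL (d<1.006) and LDL (d 1.006–1.04); cholesterol and triglycerides measured enzymatically, protein by Lowry.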
# [1] = Solubility in water of salts (and free bases); type: physicochemical; details: Table 2, salts of compounds I, temp. by No. [°C]: 1 25.5, 2 23.0, 3 22.4, 4 22.4, 5 22.0, 6 25.0, 7 25.5, 8 25.5, 9 25.5, 10 23.5, 11 23.5, 12 25.0, 13 24.0, 14 23.0, 15 22.0, 16 24.5, 17 22.5, 18 22.0; for solubility: water, read-out: Solubility in water, Concentration in % by wt.
# LDL receptor mRNA [2] = experiment: Stimulation of LDL receptor mRNA expression in HepG2 cells (Northern blot); type: cell-based; details: Homo sapiens; HepG2, 2 × 10^-6 M, 16 h; control = 100%; ratio to β-actin mRNA
# Protocol: 1a. In the human hepatocytoma cell line HepG2, which is recognized everywhere as model, the LDL receptor mRNA levels are increased by the compounds of the formula I (Table I).
# (§1) The mRNA was prepared by the method described by Chomczynski, P. and Sacchi, N., in Anal. Biochem. 162, 156-159 (1987). In the case of organs (such as, for example, liver), the deep-frozen tissue was previously homogenized on dry ice in a mortar, and the mRNA was further concentrated by means of oligo dT by standard methods (cf. Sambrook, J., Fritsch, E. F. and Maniatis, T., Molecular Cloning, second edition, Cold Spring Harbor (1989); this collection of methods also includes descriptions of all the other relevant standard processes of molecular biology used here). 5 to […] of the dissolved mRNA obtained in this way were denatured by standard processes and fractionated on 1% horizontal agarose gels. The mRNA was transferred by capillary blotting to Hybond N membranes (Amersham). Used as specific hybridization probe was a partial LDL receptor cDNA clone and as internal standard was a plasmid which contained a β-actin gene. Both plasmids were labeled using a random primer kit from Amersham to a specific activity of 5×10^9 cpm/μg. Prehybridization, hybridization and washing of the filters took place by standard processes. The filters were subsequently exposed on Cronex 4 films (Dupont) in the presence of an intensifying screen at -70° C. overnight or for up to 14 days, and the hybridization signals were quantified from the intensity of blackening of the film using a commercially available laser densitometer. Subsequently, the quotient of the intensity of the LDL receptor band and of the actin band was determined as internal standard to correct for variations in yield.
# The HepG2 cells were incubated in RPMI 1640 standard medium with fetal calf serum (final concentration 10%). Serum-free RPMI medium was used as induction control. Subsequently, the complete mRNA was prepared and, by means of the Northern blot technique, the relevant LDL receptor mRNA and β-actin mRNA levels were determined. The quotient of the LDL receptor mRNA signal and of the β-actin mRNA signal of the control (without added substance) was set equal to 100%, and the stimulation above this of the LDL receptor mRNA levels achieved under the influence of the compounds was expressed as percentage of the control.
# LDL receptor mRNA [3] = experiment: Stimulation of LDL receptor mRNA expression in rat livers (Northern blot); type: in vivo; details: rat liver, 30 mg/kg, 6 hours after administration; untreated control = 100%
# Protocol: 1b. The LDL receptor mRNA levels are also raised in rat livers by compounds of the formula I within a few hours (Table II).
# as §1
# Liver tissue was removed and shock-frozen in liquid nitrogen.
# Subsequently, the mRNA was isolated as described and, by means of the Northern blot technique, the relative LDL receptor mRNA levels were determined. The mRNA level of untreated control animals was set equal to 100%, and the stimulation of the LDL receptor mRNA was calculated as a percentage of the […]
# [4] = read-out: Serum LDL cholesterol, % change from control at end of treatment
# [5] = read-out: Serum LDL protein, % change from control at end of treatment
# [6] = read-out: Serum VLDL cholesterol, % change from control at end of treatment
# [7] = read-out: Serum VLDL protein, % change from control at end of treatment
# [8] = read-out: Serum VLDL triglycerides, % change from control at end of treatment
smiles,measurement,setting,value
C=CCN(C(=O)c1cnc(N2CC(C)(C)NC2=O)nc1N)c1cccc(C(F)(F)F)c1 [Example 40],change in vivo at 3 mg/kg,serum lipoproteins; [4],-22%
same,change in vivo at 3 mg/kg,serum lipoproteins; [5],-18%
same,change in vivo at 3 mg/kg,serum lipoproteins; [6],-19%
same,change in vivo at 3 mg/kg,serum lipoproteins; [7],-11%
same,change in vivo at 10 mg/kg,serum lipoproteins; [4],-53%
same,change in vivo at 10 mg/kg,serum lipoproteins; [5],-38%
same,change in vivo at 10 mg/kg,serum lipoproteins; [6],-40%
same,change in vivo at 10 mg/kg,serum lipoproteins; [7],-41%
same,change in vivo at 10 mg/kg,serum lipoproteins; [8],-2%
same,change in vivo at 30 mg/kg,serum lipoproteins; [4],-58%
same,change in vivo at 30 mg/kg,serum lipoproteins; [5],-52%
same,change in vivo at 30 mg/kg,serum lipoproteins; [6],-57%
same,change in vivo at 30 mg/kg,serum lipoproteins; [7],-52%
same,change in vivo at 30 mg/kg,serum lipoproteins; [8],-41%
same,1 part by mass dissolves in ... parts by H2O,[1],12.1 parts by H2 O
same,solubility,[1],76.6 mg/mL
same,activity at 2 µM,LDL receptor mRNA [2],180%
same,LDL receptor mRNA,LDL receptor mRNA [3],340%
CCCN(C(=O)c1cnc(N2CC(C)(C)NC2=O)nc1N)c1cccc(C(F)(F)F)c1 [Example 33],change in vivo at 10 mg/kg,serum lipoproteins; [4],-47%
same,change in vivo at 10 mg/kg,serum lipoproteins; [5],-33%
same,change in vivo at 10 mg/kg,serum lipoproteins; [6],48%
same,change in vivo at 10 mg/kg,serum lipoproteins; [7],-29%
same,change in vivo at 10 mg/kg,serum lipoproteins; [8],-73%
same,change in vivo at 30 mg/kg,serum lipoproteins; [4],-67%
same,change in vivo at 30 mg/kg,serum lipoproteins; [5],44%
same,change in vivo at 30 mg/kg,serum lipoproteins; [6],-95%
same,change in vivo at 30 mg/kg,serum lipoproteins; [7],-33%
same,change in vivo at 30 mg/kg,serum lipoproteins; [8],-100%
same,1 part by mass dissolves in ... parts by H2O,[1],22.8 parts by H2 O
same,solubility,[1],42 mg/mL
same,activity at 2 µM,LDL receptor mRNA [2],205%
same,LDL receptor mRNA,LDL receptor mRNA [3],350%
"CC(C)N(C(=O)c1cnc(N2CC(C)(C)NC2=O)nc1N)c1cccc(C(F)(F)F)c1 [Example 4, 4-amino-2-(4,4-dimethyl-2-oxo-1-imidazolidinyl)pyrimidine-5-carboxylic acid N-isopropyl-N-(3-trifluoromethylphenyl)amide hydrochloride]",change in vivo at 10 mg/kg,serum lipoproteins; [4],-39%
same,change in vivo at 10 mg/kg,serum lipoproteins; [5],-33%
same,change in vivo at 10 mg/kg,serum lipoproteins; [6],2%
same,change in vivo at 10 mg/kg,serum lipoproteins; [7],-18%
same,change in vivo at 30 mg/kg,serum lipoproteins; [4],-68%
same,change in vivo at 30 mg/kg,serum lipoproteins; [5],-53%
same,change in vivo at 30 mg/kg,serum lipoproteins; [6],-70%
same,change in vivo at 30 mg/kg,serum lipoproteins; [7],-13%
same,change in vivo at 30 mg/kg,serum lipoproteins; [8],-29%
same,activity at 2 µM,LDL receptor mRNA [2],205%
same,LDL receptor mRNA,LDL receptor mRNA [3],221%
